US20040224892A1, “Oligosaccharides in cosmetic or dermatological compositions for stimulating adhesion of keratinocytes to major proteins of the dermoepidermal junction and restoration of epidermal cohesion” (Laboratoires de Biologie Vegetale Yves Rocher, a …, priority 2001, published 2004)

Tests used:
[1] = tested on: normal human keratinocytes on laminin V; experiment: Adhesion of normal human keratinocytes on laminin V (colorimetric crystal violet adherence test); type: cell-based; conditions: manganese chloride 0.5 mM, 45 minutes
Method: The culture medium employed was the defined medium for keratinocyte culture 154 (+additive HKGS) manufactured by Cascade Inc. (USA) and marketed by Tebu (France) containing 0.2 mM of CaCl2, pH 7.2 to 7.4. The keratinocytes were obtained according to the technique described by Boyce and Ham (Boyce S T, Ham R G, J. Invest. Dermatol., 1983, 81, 33s-40s). Pieces of human skin obtain from human prepuces (circumcision) were treated in a manner to isolate their basal human keratinocytes. 3·10^4 live cells were then seeded per cm^2 on 25-cm^2 tissue culture dishes (Coming, Polylabo, France). The keratinocytes were cultured at 37° C. in an incubator with CO2 (5% of CO2, 95% of air and 98% humidity). The medium was changed every two days. Subculture took place when the cells reached subconfluence. The cell layer was then rinsed with PBS, then the cells were trypsinated using the conventional trypsination technique (Trypsin-EDTA (0.05-0.02%) at 37° C.). The cells were then seeded in 75-cm^2 culture dishes. Collagen IV (Becton Dickinson, France), fibronectin (Becton Dickinson, France) and laminin 5, purified in the laboratory (Pousselle P. et al., J. Cell. Biol., 1991, 114(3); 567-576) were used in our experiments. […] An absorbance reading was performed at 570 nm using an ELISA plate reader. […] We then calculated the means of the three absorbance values for each of the triplicates. […]

[2] = tested on: normal human keratinocytes on collagen IV; experiment: Adhesion of normal human keratinocytes on collagen IV (colorimetric crystal violet adherence test); type: cell-based; conditions: manganese chloride 0.5 mM, 45 minutes
Method: The culture medium employed was the defined medium for keratinocyte culture 154 (+additive HKGS) manufactured by Cascade Inc. (USA) and marketed by Tebu (France) containing 0.2 mM of CaCl2, pH 7.2 to 7.4. The keratinocytes were obtained according to the technique described by Boyce and Ham (Boyce S T, Ham R G, J. Invest. Dermatol., 1983, 81, 33s-40s). Pieces of human skin obtain from human prepuces (circumcision) were treated in a manner to isolate their basal human keratinocytes. 3·10^4 live cells were then seeded per cm^2 on 25-cm^2 tissue culture dishes (Coming, Polylabo, France). The keratinocytes were cultured at 37° C. in an incubator with CO2 (5% of CO2, 95% of air and 98% humidity). The medium was changed every two days. Subculture took place when the cells reached subconfluence. The cell layer was then rinsed with PBS, then the cells were trypsinated using the conventional trypsination technique (Trypsin-EDTA (0.05-0.02%) at 37° C.). The cells were then seeded in 75-cm^2 culture dishes. Collagen IV (Becton Dickinson, France), fibronectin (Becton Dickinson, France) and laminin 5, purified in the laboratory (Pousselle P. et al., J. Cell. Biol., 1991, 114(3); 567-576) were used in our experiments. […] An absorbance reading was performed at 570 nm using an ELISA plate reader. […] We then calculated the means of the three absorbance values for each of the triplicates.

Manganese chloride [MnCl2]
% adherence (cells alone = 100%) ([1]; Laminin 5 1.5 μg/ml): 109% | % adherence (cells alone = 100%) ([1]; Laminin 5 3 μg/ml): 97% | % adherence (cells alone = 100%) ([2]; Collagen IV 10 μg/ml): 280% | % adherence (cells alone = 100%) ([2]; Collagen IV 20 μg/ml): 357%
